Tests used:
[1] = target: ADRa2A (α2A adrenergic receptor) (Homo sapiens, UniProt P08913); experiment: BRET-based G protein dissociation assay; assay type: cell-based
5-HT1E = target: T1, 5-HT1E (Homo sapiens, UniProt P28566); experiment: Functional assay (Arrestin); assay type: cell-based
T1 construct: expressed in transfected cells; host or cells: HEK-293

DOI induced HTR in mice = experiment: Blockade of DOI-induced HTR; assay type: in vivo, mouse; conditions: 10 min before DOI 1 mg/kg
Procedure: The “E559 polymorph” was studied for its effect to block the hallucinogenic (HTR) response of a psychedelic 2,5-Dimethoxy-4-iodoamphetamine (DOI) in the mouse HTR model. DOI is a serotonergic hallucinogenic compound used commonly as a positive control in HTR model [Halberstadt et al., Psychopharmacology (Berl). 2013 June; 227(4):727-39]. An HTR study was performed as described in Example 2 as follows: Five groups of mice (n=6-7 per group, 31 total) were either treated with vehicle (saline) or with the “E559 polymorph” at 0.1, 0.3, 1, or 3 mg/kg. Ten minutes later, all of the mice were injected with DOI (1 mg/kg) and then HTR activity was assessed for 30 min. […] All doses of the “E559 polymorph” were effective in blocking the response to DOI in a dose-dependent manner. The data are represented as group means±standard deviation and asterisks indicate statistical significances (*p<0.0001) compared to the vehicle (saline) control (0 mg/kg in FIG. 13A).
The time course of the blockade of the DOI induced HTR by the “E559 polymorph” was examined. An HTR study was performed as described in Example 2 as follows: Two groups of mice (n=6 per group) were either treated with vehicle or with the “E559 polymorph” at 1 mg/kg. Ten minutes later, all of the mice were injected with DOI (1 mg/kg) and then HTR activity was assessed for 30 min. […] The data are represented as group means±standard deviation and asterisks indicate statistical significances (*p<0.0001) compared to the vehicle (saline) control (0 mg/kg in FIG. 13B). The time course of the blockade of the DOI induced HTR by the “E559 polymorph” mirrors the time course of the pharmacokinetics of the “E559 polymorph” in the mouse brain tissue (shown in Example 3).

hERG channel = target: T2, hERG channel (Homo sapiens, UniProt Q12809); experiment: Cell-based hERG antagonist assay, CHO-K1 cells, tail current
T2 construct: expressed in transfected cells; host or cells: CHO-K1
T2 sequence (Q12809 whole entry): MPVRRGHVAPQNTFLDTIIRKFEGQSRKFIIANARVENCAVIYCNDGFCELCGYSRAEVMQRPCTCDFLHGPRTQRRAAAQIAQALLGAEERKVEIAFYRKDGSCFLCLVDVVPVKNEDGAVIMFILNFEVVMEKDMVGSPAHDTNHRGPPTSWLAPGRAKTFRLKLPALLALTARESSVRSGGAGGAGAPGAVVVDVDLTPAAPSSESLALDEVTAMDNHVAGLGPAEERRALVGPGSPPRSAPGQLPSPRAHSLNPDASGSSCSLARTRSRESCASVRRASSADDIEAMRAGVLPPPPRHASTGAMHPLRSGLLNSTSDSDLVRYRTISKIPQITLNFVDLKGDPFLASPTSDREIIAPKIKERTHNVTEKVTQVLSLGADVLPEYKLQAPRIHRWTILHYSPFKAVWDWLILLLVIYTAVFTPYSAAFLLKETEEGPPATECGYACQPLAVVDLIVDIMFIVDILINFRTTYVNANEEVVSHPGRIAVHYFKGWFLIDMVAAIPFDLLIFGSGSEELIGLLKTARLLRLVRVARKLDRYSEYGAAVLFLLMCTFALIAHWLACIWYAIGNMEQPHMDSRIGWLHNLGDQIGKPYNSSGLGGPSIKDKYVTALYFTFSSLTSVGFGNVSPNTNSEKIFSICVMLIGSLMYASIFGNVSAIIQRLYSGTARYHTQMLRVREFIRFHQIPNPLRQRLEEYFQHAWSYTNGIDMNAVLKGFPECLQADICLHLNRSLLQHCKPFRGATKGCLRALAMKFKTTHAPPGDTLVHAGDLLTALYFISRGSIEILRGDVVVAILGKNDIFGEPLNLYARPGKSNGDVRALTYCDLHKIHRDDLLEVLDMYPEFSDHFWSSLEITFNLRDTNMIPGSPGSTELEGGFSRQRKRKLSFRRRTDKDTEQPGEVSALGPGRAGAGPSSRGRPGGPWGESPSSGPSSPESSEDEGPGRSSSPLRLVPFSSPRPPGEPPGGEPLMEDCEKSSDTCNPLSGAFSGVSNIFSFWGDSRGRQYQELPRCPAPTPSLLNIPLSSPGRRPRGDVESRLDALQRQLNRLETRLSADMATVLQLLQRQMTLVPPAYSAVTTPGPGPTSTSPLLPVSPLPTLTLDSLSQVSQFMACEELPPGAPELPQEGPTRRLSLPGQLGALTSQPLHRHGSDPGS
Procedure: The human […] (hERG) channel, is a potassium channel whose inhibition is related to cardiac arrhythmias (Abbott et al., Cell, 1999, V97(2); p175-187). The effect of the “E559 polymorph” on the hERG channel was performed in a cell-based hERG antagonist assay. In brief, CHO-K1 cells were stably transfected with human hERG cDNA and allowed to achieve whole cell configuration in culture. Cells were held at −80 mV and a 500 ms pulse to −40 mV is delivered to measure the leaking current, which is subtracted from the tail current on-line. Then the cell is depolarized to +40 mV for 500 ms and then to −80 mV over a 100 ms ramp to elicit the hERG tail current. This paradigm is delivered once every 8 s to monitor the current amplitude. The assay is conducted at room temperature. The “E559 polymorph” is then applied to cells from low to high concentrations (0.0003, 0.003, 0.01, 0.03, 0.1, 0.3, 1, 10, 30, and 100 μM) sequentially for 5 minutes. Astermizole is used at multiple concentrations as a reference compound to calculate the percent inhibition of hERG channel by the “polymorph E559”.

[2] = target: ADRb1 (β1 adrenergic receptor) (Homo sapiens, UniProt P08588); experiment: BRET-based G protein dissociation assay; assay type: cell-based
ADRb1 (β1 adrenergic receptor), sequence (P08588 whole entry): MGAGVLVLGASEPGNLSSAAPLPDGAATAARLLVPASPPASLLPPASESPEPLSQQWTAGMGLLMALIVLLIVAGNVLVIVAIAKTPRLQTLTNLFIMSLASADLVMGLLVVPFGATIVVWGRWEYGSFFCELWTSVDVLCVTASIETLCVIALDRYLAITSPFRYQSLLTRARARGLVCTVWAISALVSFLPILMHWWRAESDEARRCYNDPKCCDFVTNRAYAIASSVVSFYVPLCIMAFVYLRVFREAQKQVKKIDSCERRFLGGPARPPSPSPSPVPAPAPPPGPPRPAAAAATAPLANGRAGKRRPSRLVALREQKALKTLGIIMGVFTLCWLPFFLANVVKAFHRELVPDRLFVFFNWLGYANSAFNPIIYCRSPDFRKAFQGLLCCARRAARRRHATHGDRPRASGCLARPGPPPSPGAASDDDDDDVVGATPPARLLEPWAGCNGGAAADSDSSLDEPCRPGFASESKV

5-HT6 = 5-HT6 (Homo sapiens, UniProt P50406); experiment: Functional assay (cAMP); assay type: cell-based; set-up: expressed in transfected cells; host or cells: HEK-293
5-HT6, sequence (P50406 whole entry): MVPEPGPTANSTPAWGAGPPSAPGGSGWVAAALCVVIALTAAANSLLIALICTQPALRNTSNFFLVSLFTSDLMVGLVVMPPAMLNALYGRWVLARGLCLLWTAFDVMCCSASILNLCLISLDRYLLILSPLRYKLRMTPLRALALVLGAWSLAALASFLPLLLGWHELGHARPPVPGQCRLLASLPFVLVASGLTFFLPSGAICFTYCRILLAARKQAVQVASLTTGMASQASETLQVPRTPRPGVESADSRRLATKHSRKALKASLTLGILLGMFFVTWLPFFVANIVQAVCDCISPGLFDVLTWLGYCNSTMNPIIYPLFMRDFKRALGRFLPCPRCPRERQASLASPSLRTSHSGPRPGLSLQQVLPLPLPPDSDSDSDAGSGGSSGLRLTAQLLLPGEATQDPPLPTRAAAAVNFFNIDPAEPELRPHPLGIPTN
Procedure: Neuro-receptor binding and functional effects of the “E559 polymorph” was examined by analyzing binding affinity [Ki (nM)], functional agonist activity [EC50 (nM)], and functional antagonist activity [IC50 (nM)] against a panel of key receptors in neurophysiological disorders. Binding and functional assays were performed at “E559 polymorph” concentrations of 0.0003, 0.003, 0.01, 0.03, 0.1, 0.3, 1, and 10 μM. In binding assays, cell membrane homogenates, expressing each receptor target, were incubated with the corresponding radio-ligand in absence or presence of several concentration of the “E559 polymorph” compound. The measurement of binding affinity of the “E559 polymorph” is represented in TABLE XIII by Ki (nM) which was calculated as percent inhibition of the binding of a radioactively labeled reference ligand at each receptor. In functional assays the HEK-293 cells expressing each receptor target were suspended in buffer and distribute in microplates and incubated for 30 minutes at room temperature or 37° C. in the presence of buffer alone (basal control), the reference agonist or antagonist, or the “E559 polymorph. Following incubation, the cells were lysed and the appropriate fluorescent probe (Ca2+ flux, cAMP, or IP1) were added for 60 minutes to measure the fluorescence transfer at the appropriate wavelength using a microplate reader. The cellular agonist effect (EC50) was calculated as a percent of control response to a known reference agonist and the cellular antagonist effect (IC50) was calculated as a percent inhibition of control reference agonist response for each receptor.
The functional agonist activity [EC50 (nM), Emax], and functional antagonist activity [IC50 (nM)] of the 5R:8S stereoisomer of the “E559 polymorph” (5R:8S E558) was compared with the “E559 polymorph” (a 5R:8R stereoisomer) at selected serotonin receptors. The assays were performed as described in Example 6.

ADRa2A (α2A adrenergic receptor), sequence (P08913 whole entry): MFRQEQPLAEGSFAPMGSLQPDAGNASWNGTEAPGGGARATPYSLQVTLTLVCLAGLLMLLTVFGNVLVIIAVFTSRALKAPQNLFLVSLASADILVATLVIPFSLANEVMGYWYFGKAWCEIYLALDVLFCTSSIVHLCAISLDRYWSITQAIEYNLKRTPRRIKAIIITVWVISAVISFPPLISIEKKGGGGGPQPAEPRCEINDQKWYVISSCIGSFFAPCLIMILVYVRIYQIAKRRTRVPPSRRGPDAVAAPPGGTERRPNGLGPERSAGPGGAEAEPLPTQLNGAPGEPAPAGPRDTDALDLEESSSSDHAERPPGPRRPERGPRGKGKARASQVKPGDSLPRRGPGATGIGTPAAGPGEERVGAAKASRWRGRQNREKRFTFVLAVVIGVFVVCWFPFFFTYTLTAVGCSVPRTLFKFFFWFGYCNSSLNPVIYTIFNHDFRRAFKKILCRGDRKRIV
T1 sequence (P28566 whole entry): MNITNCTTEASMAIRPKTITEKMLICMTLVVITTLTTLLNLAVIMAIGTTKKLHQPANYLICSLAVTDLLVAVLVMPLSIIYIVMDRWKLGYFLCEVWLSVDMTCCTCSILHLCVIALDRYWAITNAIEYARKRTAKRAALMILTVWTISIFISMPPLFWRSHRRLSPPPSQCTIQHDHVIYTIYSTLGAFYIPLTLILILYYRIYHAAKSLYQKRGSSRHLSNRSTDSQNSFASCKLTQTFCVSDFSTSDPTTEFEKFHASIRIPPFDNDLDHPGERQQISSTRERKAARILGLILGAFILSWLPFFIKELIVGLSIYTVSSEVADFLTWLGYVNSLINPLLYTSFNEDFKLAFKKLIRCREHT

**Q.** How did the EC50 [1] turn out when CCN(CC)C(=O)[C@@H]1C=C2c3cccc4[nH]c(Br)c(c34)C[C@H]2N(C)C1 [E559, (5R, 8R)-2-Bromo-9,10-didehydro-N,N-diethyl-6-methylergoline-8-carboxamide hemi-D-tartrate] was run?
**A.** The EC50 was 282 nM.

**Q.** And the Kb [1]?
**A.** The Kb was 11.9 nM.

**Q.** What about the EC50 (5-HT1E) of the same compound?
**A.** Its EC50 is over 10 µM.

**Q.** And the Emax (5-HT1E; Arrestin, ligand 5-HT, read-out: Functional Assay (agonist) Emax)?
**A.** The Emax was 8.7%.

**Q.** What about the “blockade of DOI induced HTR, time course” value (DOI induced HTR in mice; 1 mg/kg) of the same compound?
**A.** Its value is “almost completely blocked the DOI induced HTR during the first 10 minutes”.

**Q.** And the “time after which blockage of DOI induced HTR was no longer detected” value (DOI induced HTR in mice; 1 mg/kg)?
**A.** The value was 40 to 60 min.

**Q.** And the “attenuation of DOI-induced HTR” value (DOI induced HTR in mice; 0.1, 0.3, 1 or 3 mg/kg)?
**A.** Its value is “significantly attenuated the ability of DOI to induce the HTR in mice”.

**Q.** What about the EC50 (hERG channel) of the same compound?
**A.** Its EC50 is 31.6 µM.

**Q.** And the EC50 [2]?
**A.** The EC50 was over 10 µM.

**Q.** And the Kb [2]?
**A.** Its Kb is 95.2 nM.

**Q.** And the EC50 (5-HT6)?
**A.** Its EC50 is 0.5 nM.

**Q.** And the Emax (5-HT6; cAMP, ligand 5-HT, read-out: Functional Assay (agonist) Emax)?
**A.** The Emax was 80.1%.

Reference: patent US12331051B2 (priority 2021, dated 2025)
